# According to US20250248402A1, “HERBICIDAL COMPOSITIONS AND METHODS FOR CONTROLLING WEEDS” (UPL Mauritius Limited, priority 2024, published 2025):
# Tests used:
# [1] = system: common waterhemp, Non-Target Site Resistant "ACR" Population; experiment: Greenhouse dose-response, effective dose on atrazine-resistant waterhemp; format: in vivo, Amaranthus tuberculatus; conditions: 13 days after treatment, visual scale 0-100
# [2] = system: common waterhemp, Non-Target Site Resistant "MCR" Population; experiment: as above; format: in vivo, Amaranthus tuberculatus; conditions: 13 days after treatment, visual scale 0-100
smiles,measurement,setting,value
"CCNc1nc(Cl)nc(NC(C)C)n1 [Atrazine (480 g/L FL), Atrazine]",ED 20 Estimate,[1],6.782 g ai/ha
same,ED 80 Estimate,[1],768.664 g ai/ha
same,ED 20 Estimate,[2],20.856 g ai/ha
same,ED 80 Estimate,[2],793.705 g ai/ha
